Drawing on paper PMC12301034, “Design and Synthesis of Boronic Chalcones with Dual Anticancer and Anti-Inflammatory Activity” (Molecules, 2025), this text covers solubility class, solubility and IC50 for one compound.

One data set is described as follows: Kinetic solubility. It is filed as physicochemical. How it is done: To determine kinetic solubility, stock solutions of test compounds and controls [Amiodarone hydrochloride (Sigma-Aldrich, St. Louis, MO, USA), Diclofenac (Oakwood Chemical, Estill, SC, USA), Chloramphenicol (Sigma-Aldrich, St. Louis, MO, USA), and Itraconazole (Sigma-Aldrich, St. Louis, MO, USA)] were prepared at 10 mM in DMSO. A volume of 5 µL from each stock solution was transferred to designated wells of a 96-well incubation plate in duplicate. Subsequently, 195 µL of phosphate-buffered saline (PBS) at pH 7.4 or 2.0 was added to achieve a final compound concentration of 250 µM (final DMSO concentration ≤ 2.5%). The plate was sealed and subjected to shaking at 200 rpm for 24 ± 1 h at room temperature (25 °C). Following the incubation period, the plate was centrifuged at 3000 rpm for 15 min at 25 °C to remove precipitates. A 100 µL aliquot of the supernatant from each well was transferred to a corresponding well in a new 96-well plate. The samples were subsequently analyzed by an LCMS-8045 system (Shimazu, Kyoto, Japan). To quantify the solubilized fraction, a calibration curve was prepared for each test compound and control. From the 10 mM stock solution, an intermediate standard solution (0.5 mM) was prepared in a 1:1 acetonitrile:water mixture. Serial dilutions of this intermediate solution were performed to obtain final concentrations of 50, 40, 20, 2, and 1 µM. […]

The next data set deals with HCT116 p53^+/+ cells. Kind of data set: SRB cytotoxicity assay on HCT116 p53+/+ cells. It is filed as cell-based, human. To be noted: Homo sapiens, HCT-116, 48 h of treatment. From the text:
The SCC-25 (ATCC® CRL-1628™), Detroit-562 (ATCC® CCL-138™), and THP-1 (ATCC® TIB-202™) cells were purchased from Rio de Janeiro Cell Bank (Duque de Caxias, Brazil), and NOK-si was kindly provided by Prof. Carlos Rossa from the School of Dentistry—UNESP. All the cells were cultivated according to standard conditions. Human colorectal adenocarcinoma HCT116 cell lines (ATCC® CCL-247™) expressing p53 and its p53-null isogenic derivative (HCT116 p53^−/−) were provided by B. Vogelstein (The Johns Hopkins Kimmel Cancer Center, Baltimore, MD, USA).
HCT p53^+/+ and HCT p53^−/− cell lines were seeded in 96-well plates, with a concentration of 5000 cells/well, and allowed to adhere overnight. Afterwards, they were treated with serial dilutions of the compounds for an additional 48 h (compounds were prepared at 30 mM, in DMSO, and tested with a starting concentration of 50μM and 15 μM). Cells passed then through a series of essential steps (fixation with 10% trichloroacetic acid, for 1 h at 4 °C; staining with 0.4% sulforhodamine B (SRB); wash with 1% acetic acid; and solubilization with 10 mM Tris-Base); subsequently, absorbance was measured at 510 nm in a microplate reader (Biotek Instruments Inc., Synergy, MX, USA). IC50 values were determined using GraphPad Prism software, Version 7.0 (La Jolla, CA, USA).

Each structure is given as a SMILES string. A value given as a limit tells only on which side of the number the result lay.

For the compound `COc1cccc(C(=O)/C=C/c2cccc(B(O)O)c2)c1` [Compound 5, (E)-(3-(3-(3-methoxyphenyl)-3-oxoprop-1-en-1-yl)phenyl)boronic acid], the solubility class entry in the data set “Kinetic solubility” (kinetic solubility pH 7.4) was “moderate-to-high solubility”. Also, the solubility at 24 h in the data set “Kinetic solubility” (phosphate-buffered saline, aqueous buffer, kinetic from dmso stock, PBS pH 7.4, 24 h, 25 °C, read-out: Kinect Solubility (KS) pH = 7.4) was greater than 39.6 µg/mL. Further, in the data set on HCT116 p53^+/+ cells, the IC50 stood at 2.5 ± 0.17 µM.

For orientation: solubility means the concentration that dissolves in the medium under given conditions. Usually IC50 stands for the point on the concentration scale where inhibition reaches its midpoint.
